Measurements: paper PMC11796312, “Multifunctional, Fluorene‐Based Modulator of Cholinergic and GABAergic Neurotransmission as a Novel Drug Candidate for Palliative Treatment of Alzheimer's Disease” (Angewandte Chemie (International Ed. in English), 2024)
“Also recorded” adds a separate entry of the source.

How the values were obtained:
mGAT1 = mGAT1 (Mus musculus, UniProt P31648); experiment: MS Binding Assay with NO 711 as marker
[1] = system: mouse microglial cells SIM-A9; experiment: MTT cell viability assay, SIM-A9; format: cell-based; details: Mus musculus, SIM-A9, 24 h; read-out: IC50 (MTT) ± SEM
Text: Human neuroblastoma cells SH-SY5Y and mouse microglial cells SIM-A9 were used to evaluate cell viability, intracellular RONS, and malondialdehyde (MDA; CAS No. 542–78-9).
SH-SY5y cells were cultivated in Dulbecco's modified Eagle's medium (DMEM; Biosera, Nuaille, France) supplemented with 10% fetal bovine serum (Biosera) and 1% penicillin-streptomycin antibiotic solution (Sigma-Aldrich, St. Louis, MO, USA). The culture medium for SIM-A9 cells was further supplemented with donor horse serum (Biosera). The cells were incubated at 37 °C in a CO2 incubator (BINDER CO2 incubator CB 160, Tuttlingen, Germany) and routinely passaged by trypsinization at 75 –85% confluence.
Colorimetric Cell Viability Assay
The toxicological indices IC 50 used in the present study were measured utilizing 3-(4,5-dimethylthiazol-2-yl)-2,5-diphenyl-tetrazolium bromide (MTT) reduction assay after (1 picture or pasted object on this page, not shown here)
24 h incubation with tested compounds. […]
incubation, the cultivation medium containing serially diluted substances was aspirated and replaced with a fresh medium containing MTT at a concentration of 0.5 mg/mL and subsequently incubated at 37 °C for 1 h. […] Cell viability was assessed spectrophotometrically by the amount of formazan produced. Absorbance was measured at 570 nm with 650 nm reference wavelength on Spark (Tecan Group Ltd, Switzerland). […]

SH-SY5Y cells = experiment: Intracellular RONS, DCFH-DA probe, SH-SY5Y; format: cell-based, human; details: IC50, ½ IC50, ¼ IC50, 1, 4, 24 h
SIM-A9 cells [2] = experiment: Intracellular RONS, DCFH-DA probe, SIM-A9; format: cell-based, mouse
SIM-A9 cells [3] = experiment: Intracellular O2•-, DHE probe, SIM-A9; format: cell-based, mouse
ICR-CD1 mice = experiment: Dose safety verification after oral (i.g.) administration; format: in vivo; details: 10 mg/kg i.g.
Protocol: phosphatase (ALP), amylase, and lactate dehydrogenase (LDH) were measured in the accredited biochemical laboratory of the Department of Clinical Biochemistry and Diagnostics, University Hospital, Hradec Kralove, Czech Republic. Statistical data analysis was performed through IBM SPSS Statistics version 26 (IBM, Armonk, NY, USA) using the Kolmogorov-Smirnov and Shapiro-Wilk tests to test data normality. Due to normally distributed data, the Student´s t-test was used to assess the differences compared with the control group (p ≤ 0.05).
Samples of the liver and kidney were used for standard histopathological examination. Organs were fixed with 10% neutral buffered formalin (Bamed s.r.o., Ceske Budejovice, Czech Republic), histologically processed, and stained with hematoxylin and eosin (both Merck) according to Pejchal et al.[41] The histopathological changes were evaluated using a BX-51 microscope (Olympus, Tokyo, Japan).
Dose safety verification after oral administration
Mice were randomly assigned to the experimental groups of two males and two females per one selected dose (10 mg/kg) of 6 to verify its safety. 6 was administered by a probe (i.g., 0.1 mL/10 g of animal weight; 1% Tween 80). Treated animals were intensively observed for signs of toxicity; then, the animals were subjected to macroscopic examination. The blood was collected for biochemical analysis of glucose, urea, and creatinine concentration and the activity of alanine transaminase (ALT), aspartate transaminase (AST), gamma-glutamyl transferase (GGT), alkaline phosphatase (ALP), amylase, and creatine kinase (CK). Selected organs (terminal esophagus, stomach, duodenum, pancreas, kidney, and liver) were collected for histopathologic examination. […]

## O[C@H](CNCC1CC1)[C@H](Cc1ccccc1)NC1c2ccccc2-c2ccccc21 [Compound 6]
mGAT1
  Ki: 37.2 µM
[1]
  IC50: 6.46 ± 0.09 µM
SH-SY5Y cells
  increase in intracellular RONS: no significant increase
SIM-A9 cells [2]; IC50, ½ IC50, ¼ IC50, 1, 4, 24 h
  increase in intracellular RONS: no significant increase
SIM-A9 cells [2]; conc. = IC50, 24 h
  intracellular RONS, times lower: 1.63 fold
SIM-A9 cells [3]; all concentrations and times
  increase in intracellular O2•-: no significant increase
SIM-A9 cells [3]; conc. = IC50, 24 h
  decrease of O2•- level: 26%
ICR-CD1 mice
  Necropsy: no pathology of internal organs
  signs of toxicity: no signs of poisoning occurred; also recorded: no signs of toxicity occurred
ICR-CD1 mice; 48 h
  ALP, plasma: 61.2 ± 6.2 U/L
  ALT, plasma: 30.0 ± 1.6 U/L
  AST, plasma: 51.3 ± 7.0 U/L
  Amylase, plasma: 2630 ± 110 U/L
  CK, plasma: 123 ± 25 U/L
  Glucose, plasma: 205 ± 16 mg/dL
  Urea, plasma: 38.6 ± 2.5 mg/dL
  blood biochemistry vs control: no significant changes; also recorded: lack of significant changes in blood biochemistry
ICR-CD1 mice; liver, kidney, esophagus, stomach, duodenum, pancreas
  histopathological examinations: no tissue damage
